Patent publication US20210045385A1, “PYRIDAZINONE-SUBSTITUTED KETOXIMES AS HERBICIDES” (FMC Corporation, priority 2018, published 2021)

Experiments:
Type in all cases: in vivo
[1] = system: duck salad (Heteranthera limosa); test: Test D flooded paddy test, visual plant response rating; conditions: 250 g ai/ha, scale 0 to 100 (0 no effect, 100 complete control), 13 to 15 d
Summary of the method: (§1)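 Plants were grown to the 2-leaf stage, pots flooded to 3 cm above soil, and compound applied directly into the paddy water, with the depth held throughout. After 13 to 15 d in a greenhouse, response was rated visually against untreated controls on a 0–100 scale (0 no effect, 100 complete control).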

[2] = system: sedge umbrella (small-flower umbrella sedge, Cyperus difformis); test: as above; conditions: 250 g ai/ha, scale 0 to 100 (0 no effect, 100 complete control), 13 to 15 d
Summary of the method: as §1

rice (Oryza sativa) = test: as above; conditions: 250 g ai/ha, scale 0 to 100 (0 no effect, 100 complete control), 13 to 15 d
Summary of the method: as §1

[3] = system: barnyardgrass (Echinochloa crus-galli); test: as above; conditions: 250 g ai/ha, scale 0 to 100 (0 no effect, 100 complete control), 13 to 15 d
Summary of the method: as §1

[4] = system: foxtail, giant (giant foxtail, Setaria faberi); test: Test C postemergence, visual plant response rating
Summary of the method: (§2)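 Compounds in a non-phytotoxic solvent with surfactant were applied as a directed soil spray preemergence or to 2–10 cm, one- to two-leaf plants postemergence, in loam–sand soil. After about 10 d in a greenhouse, injury was visually rated against untreated controls on a 0–100 scale (100 = complete control).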

[5] = system: galium (catchweed bedstraw, Galium aparine); test: Test C postemergence, visual plant response rating
Summary of the method: as §2

kochia (Bassia scoparia) [6] = test: Test C postemergence, visual plant response rating
Summary of the method: as §2

[7] = system: barnyardgrass (Echinochloa crus-galli); test: Test C postemergence, visual plant response rating
Summary of the method: as §2

[8] = system: wheat (Triticum aestivum); test: Test C postemergence, visual plant response rating
Summary of the method: as §2

[9] = system: pigweed (Amaranthus retroflexus); test: Test C postemergence, visual plant response rating
Summary of the method: as §2

[10] = system: blackgrass (Alopecurus myosuroides); test: Test C postemergence, visual plant response rating
Summary of the method: as §2

corn (Zea mays) = test: Test C postemergence, visual plant response rating
Summary of the method: as §2

[11] = system: Italian ryegrass (Lolium mutiflorum); test: Test C postemergence, visual plant response rating
Summary of the method: as §2

[12] = system: ragweed (common ragweed, Ambrosia artemisiifolia); test: Test C postemergence, visual plant response rating
Summary of the method: as §2

[13] = system: foxtail, giant (giant foxtail, Setaria faberi); test: Test C preemergence, visual plant response rating; conditions: Test C, 0 is no effect, 100 is complete control
Summary of the method: as §2

kochia (Bassia scoparia) [14] = test: Test C preemergence, visual plant response rating; conditions: Test C, 0 is no effect, 100 is complete control
Summary of the method: as §2

[15] = system: barnyardgrass (Echinochloa crus-galli); test: Test C preemergence, visual plant response rating; conditions: Test C, 0 is no effect, 100 is complete control
Summary of the method: as §2

[16] = system: pigweed (Amaranthus retroflexus); test: Test C preemergence, visual plant response rating; conditions: Test C, 0 is no effect, 100 is complete control
Summary of the method: as §2

[17] = system: Italian ryegrass (Lolium mutiflorum); test: Test C preemergence, visual plant response rating; conditions: Test C, 0 is no effect, 100 is complete control
Summary of the method: as §2

[18] = system: ragweed (common ragweed, Ambrosia artemisiifolia); test: Test C preemergence, visual plant response rating; conditions: Test C, 0 is no effect, 100 is complete control
Summary of the method: as §2

[19] = Test C, postemergence, 125 g ai/ha

C#CCON=C(c1cc(Cl)cc(Cl)c1Cl)c1c(O)c(C)nn(C)c1=O [Compound 296]
70: Barnyardgrass plant response rating (0 to 100 scale) [7, 19] | Wheat plant response rating (0 to 100 scale) ([8]; Postemergence, 31 g ai/ha) | Blackgrass plant response rating (0 to 100 scale) [10, 19]
30: Foxtail, Giant plant response rating (0 to 100 scale) ([4]; Postemergence, 31 g ai/ha) | Kochia plant response rating (0 to 100 scale) (kochia (Bassia scoparia) [6]; Postemergence, 31 g ai/ha) | Ragweed plant response rating (0 to 100 scale) ([18]; 31 g ai/ha)
90: Foxtail, Giant plant response rating (0 to 100 scale) [4, 19] | Pigweed plant response rating (0 to 100 scale) [9, 19] | Ryegrass, Italian plant response rating (0 to 100 scale) ([17]; 31 g ai/ha)
100: Galium plant response rating (0 to 100 scale) ([5]; Postemergence, 31 g ai/ha) | Galium plant response rating (0 to 100 scale) [5, 19] | Wheat plant response rating (0 to 100 scale) [8, 19] | Ryegrass, Italian plant response rating (0 to 100 scale) [11, 19] | Ragweed plant response rating (0 to 100 scale) ([12]; Postemergence, 31 g ai/ha) | Ragweed plant response rating (0 to 100 scale) [12, 19] | Foxtail, Giant plant response rating (0 to 100 scale) ([13]; 125 g ai/ha) | Barnyardgrass plant response rating (0 to 100 scale) ([15]; 125 g ai/ha) | Pigweed plant response rating (0 to 100 scale) ([16]; 125 g ai/ha) | Ryegrass, Italian plant response rating (0 to 100 scale) ([17]; 125 g ai/ha) | Ragweed plant response rating (0 to 100 scale) ([18]; 125 g ai/ha)
80: Pigweed plant response rating (0 to 100 scale) ([9]; Postemergence, 31 g ai/ha) | Ryegrass, Italian plant response rating (0 to 100 scale) ([11]; Postemergence, 31 g ai/ha) | Foxtail, Giant plant response rating (0 to 100 scale) ([13]; 31 g ai/ha)
20: Barnyardgrass plant response rating (0 to 100 scale) ([7]; Postemergence, 31 g ai/ha) | Corn plant response rating (0 to 100 scale) (corn (Zea mays); [19]) | Kochia plant response rating (0 to 100 scale) (kochia (Bassia scoparia) [14]; 125 g ai/ha)
0: Plant response rating, Ducksalad (Flood) [1] | Plant response rating, Sedge, Umbrella (Flood) [2] | Plant response rating, Rice (Flood) (rice (Oryza sativa)) | Plant response rating, Barnyardgrass (Flood) [3] | Blackgrass plant response rating (0 to 100 scale) ([10]; Postemergence, 31 g ai/ha) | Corn plant response rating (0 to 100 scale) (corn (Zea mays); Postemergence, 31 g ai/ha) | Kochia plant response rating (0 to 100 scale) (kochia (Bassia scoparia) [14]; 31 g ai/ha)
50: Kochia plant response rating (0 to 100 scale) (kochia (Bassia scoparia) [6]; [19])
60: Barnyardgrass plant response rating (0 to 100 scale) ([15]; 31 g ai/ha)
40: Pigweed plant response rating (0 to 100 scale) ([16]; 31 g ai/ha)

C#CCO/N=C(\c1ccc(F)c(Cl)c1)c1c(O)c(C)nn(C)c1=O [Compound 230]
10: Foxtail, Giant plant response rating (0 to 100 scale) ([4]; Postemergence, 31 g ai/ha) | Blackgrass plant response rating (0 to 100 scale) [10, 19] | Ragweed plant response rating (0 to 100 scale) ([12]; Postemergence, 31 g ai/ha) | Pigweed plant response rating (0 to 100 scale) ([16]; 31 g ai/ha) | Ryegrass, Italian plant response rating (0 to 100 scale) ([17]; 125 g ai/ha)
0: Plant response rating, Ducksalad (Flood) [1] | Plant response rating, Sedge, Umbrella (Flood) [2] | Plant response rating, Rice (Flood) (rice (Oryza sativa)) | Plant response rating, Barnyardgrass (Flood) [3] | Kochia plant response rating (0 to 100 scale) (kochia (Bassia scoparia) [6]; Postemergence, 31 g ai/ha) | Kochia plant response rating (0 to 100 scale) (kochia (Bassia scoparia) [6]; [19]) | Barnyardgrass plant response rating (0 to 100 scale) ([7]; Postemergence, 31 g ai/ha) | Wheat plant response rating (0 to 100 scale) ([8]; Postemergence, 31 g ai/ha) | Pigweed plant response rating (0 to 100 scale) ([9]; Postemergence, 31 g ai/ha) | Blackgrass plant response rating (0 to 100 scale) ([10]; Postemergence, 31 g ai/ha) | Corn plant response rating (0 to 100 scale) (corn (Zea mays); Postemergence, 31 g ai/ha) | Corn plant response rating (0 to 100 scale) (corn (Zea mays); [19]) | Ryegrass, Italian plant response rating (0 to 100 scale) ([11]; Postemergence, 31 g ai/ha) | Foxtail, Giant plant response rating (0 to 100 scale) ([13]; 31 g ai/ha) | Kochia plant response rating (0 to 100 scale) (kochia (Bassia scoparia) [14]; 31 g ai/ha) | Kochia plant response rating (0 to 100 scale) (kochia (Bassia scoparia) [14]; 125 g ai/ha) | Barnyardgrass plant response rating (0 to 100 scale) ([15]; 31 g ai/ha) | Barnyardgrass plant response rating (0 to 100 scale) ([15]; 125 g ai/ha) | Ryegrass, Italian plant response rating (0 to 100 scale) ([17]; 31 g ai/ha) | Ragweed plant response rating (0 to 100 scale) ([18]; 31 g ai/ha) | Ragweed plant response rating (0 to 100 scale) ([18]; 125 g ai/ha)
30: Foxtail, Giant plant response rating (0 to 100 scale) [4, 19] | Foxtail, Giant plant response rating (0 to 100 scale) ([13]; 125 g ai/ha) | Pigweed plant response rating (0 to 100 scale) ([16]; 125 g ai/ha)
50: Galium plant response rating (0 to 100 scale) ([5]; Postemergence, 31 g ai/ha)
60: Wheat plant response rating (0 to 100 scale) [8, 19]
70: Galium plant response rating (0 to 100 scale) [5, 19]
20: Barnyardgrass plant response rating (0 to 100 scale) [7, 19] | Pigweed plant response rating (0 to 100 scale) [9, 19] | Ragweed plant response rating (0 to 100 scale) [12, 19]
40: Ryegrass, Italian plant response rating (0 to 100 scale) [11, 19]
